16 compounds from US10670605B2, “Cysteine reactive probes and uses thereof” (The Scripps Research Institute, priority 2015, dated 2020) can be followed below.

What all share (assay): Competitive isoTOP-ABPP, cell lysates
Common to all, as to assay type: binding

One assay concerns the target T1, DDX59 C414 (Q5T1V6) (Homo sapiens, UniProt Q5T1V6).
T1 sequence (Q5T1V6 1-619): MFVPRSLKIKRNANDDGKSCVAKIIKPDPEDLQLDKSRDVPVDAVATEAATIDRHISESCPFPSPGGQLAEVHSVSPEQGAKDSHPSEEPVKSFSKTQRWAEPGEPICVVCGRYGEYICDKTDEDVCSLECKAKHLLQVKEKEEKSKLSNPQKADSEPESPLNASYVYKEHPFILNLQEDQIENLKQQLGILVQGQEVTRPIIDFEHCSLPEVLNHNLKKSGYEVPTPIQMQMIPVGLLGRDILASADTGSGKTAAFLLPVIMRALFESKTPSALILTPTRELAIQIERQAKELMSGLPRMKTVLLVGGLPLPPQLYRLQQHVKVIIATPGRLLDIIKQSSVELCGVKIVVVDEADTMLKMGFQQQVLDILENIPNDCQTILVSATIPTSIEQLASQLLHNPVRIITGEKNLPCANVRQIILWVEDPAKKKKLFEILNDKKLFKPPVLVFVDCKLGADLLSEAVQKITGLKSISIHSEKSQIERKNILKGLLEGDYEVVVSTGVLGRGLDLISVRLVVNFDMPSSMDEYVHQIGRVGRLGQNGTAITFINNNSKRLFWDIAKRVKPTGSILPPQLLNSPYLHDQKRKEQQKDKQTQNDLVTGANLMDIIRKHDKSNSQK

The target in another assay is EZH2 C503 (Q15910) (Homo sapiens, UniProt Q15910).
Sequence of EZH2 C503 (Q15910) (Q15910 whole entry): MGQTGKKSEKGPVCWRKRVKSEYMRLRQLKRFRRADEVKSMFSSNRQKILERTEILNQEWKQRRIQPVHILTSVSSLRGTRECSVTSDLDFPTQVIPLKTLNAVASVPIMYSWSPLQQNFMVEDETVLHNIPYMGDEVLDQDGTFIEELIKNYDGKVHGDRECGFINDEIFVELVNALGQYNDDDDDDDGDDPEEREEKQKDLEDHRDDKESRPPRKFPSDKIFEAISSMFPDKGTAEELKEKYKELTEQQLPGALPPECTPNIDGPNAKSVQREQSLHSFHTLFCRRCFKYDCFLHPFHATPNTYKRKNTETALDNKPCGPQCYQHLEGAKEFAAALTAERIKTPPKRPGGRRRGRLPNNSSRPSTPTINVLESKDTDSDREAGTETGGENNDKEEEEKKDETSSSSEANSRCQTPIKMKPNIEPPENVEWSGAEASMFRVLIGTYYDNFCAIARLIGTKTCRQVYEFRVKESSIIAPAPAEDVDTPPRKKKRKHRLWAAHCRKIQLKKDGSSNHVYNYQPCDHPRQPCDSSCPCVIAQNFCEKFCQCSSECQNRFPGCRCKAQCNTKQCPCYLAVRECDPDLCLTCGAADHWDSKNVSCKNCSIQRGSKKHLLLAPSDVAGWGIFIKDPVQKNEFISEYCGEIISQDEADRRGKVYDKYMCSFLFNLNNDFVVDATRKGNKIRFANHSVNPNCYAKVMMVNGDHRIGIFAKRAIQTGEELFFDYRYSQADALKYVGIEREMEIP
Sequence of EZH2 C503 (Q15910) (O75530 whole entry partner): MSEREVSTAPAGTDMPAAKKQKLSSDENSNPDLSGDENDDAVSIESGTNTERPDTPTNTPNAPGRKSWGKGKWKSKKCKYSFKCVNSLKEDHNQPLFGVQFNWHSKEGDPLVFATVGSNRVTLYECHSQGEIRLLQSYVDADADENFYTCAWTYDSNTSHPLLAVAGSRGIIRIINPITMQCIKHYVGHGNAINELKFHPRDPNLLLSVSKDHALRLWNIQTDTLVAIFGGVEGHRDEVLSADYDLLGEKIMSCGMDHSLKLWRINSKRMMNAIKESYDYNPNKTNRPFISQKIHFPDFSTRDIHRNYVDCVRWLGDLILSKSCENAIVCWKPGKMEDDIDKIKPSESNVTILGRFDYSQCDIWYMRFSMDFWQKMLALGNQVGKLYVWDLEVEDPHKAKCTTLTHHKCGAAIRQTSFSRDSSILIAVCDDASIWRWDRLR
Sequence of EZH2 C503 (Q15910) (Q15022 whole entry partner): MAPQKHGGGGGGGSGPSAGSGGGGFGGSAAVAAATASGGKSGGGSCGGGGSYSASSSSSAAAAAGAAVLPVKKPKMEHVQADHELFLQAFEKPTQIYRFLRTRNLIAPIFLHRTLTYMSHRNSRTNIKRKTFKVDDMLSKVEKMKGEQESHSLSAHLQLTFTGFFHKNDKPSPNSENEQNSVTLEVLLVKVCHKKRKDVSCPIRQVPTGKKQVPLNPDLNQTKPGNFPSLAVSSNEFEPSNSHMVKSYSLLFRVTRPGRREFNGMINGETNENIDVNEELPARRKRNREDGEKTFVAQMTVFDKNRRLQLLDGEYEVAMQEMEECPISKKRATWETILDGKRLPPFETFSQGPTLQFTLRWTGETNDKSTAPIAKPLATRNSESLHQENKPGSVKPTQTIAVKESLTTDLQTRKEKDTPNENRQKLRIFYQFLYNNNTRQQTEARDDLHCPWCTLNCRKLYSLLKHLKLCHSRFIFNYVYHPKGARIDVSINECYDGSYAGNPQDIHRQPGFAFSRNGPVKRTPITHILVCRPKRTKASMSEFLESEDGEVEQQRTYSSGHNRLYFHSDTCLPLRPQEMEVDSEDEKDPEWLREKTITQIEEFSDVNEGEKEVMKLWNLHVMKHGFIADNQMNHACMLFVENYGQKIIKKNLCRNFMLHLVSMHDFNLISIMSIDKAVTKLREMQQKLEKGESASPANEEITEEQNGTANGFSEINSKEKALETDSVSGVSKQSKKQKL
For a further assay, the target named is T2, IREB2 C137 (P48200) (Homo sapiens, UniProt P48200).
T2 sequence (P48200 1-963): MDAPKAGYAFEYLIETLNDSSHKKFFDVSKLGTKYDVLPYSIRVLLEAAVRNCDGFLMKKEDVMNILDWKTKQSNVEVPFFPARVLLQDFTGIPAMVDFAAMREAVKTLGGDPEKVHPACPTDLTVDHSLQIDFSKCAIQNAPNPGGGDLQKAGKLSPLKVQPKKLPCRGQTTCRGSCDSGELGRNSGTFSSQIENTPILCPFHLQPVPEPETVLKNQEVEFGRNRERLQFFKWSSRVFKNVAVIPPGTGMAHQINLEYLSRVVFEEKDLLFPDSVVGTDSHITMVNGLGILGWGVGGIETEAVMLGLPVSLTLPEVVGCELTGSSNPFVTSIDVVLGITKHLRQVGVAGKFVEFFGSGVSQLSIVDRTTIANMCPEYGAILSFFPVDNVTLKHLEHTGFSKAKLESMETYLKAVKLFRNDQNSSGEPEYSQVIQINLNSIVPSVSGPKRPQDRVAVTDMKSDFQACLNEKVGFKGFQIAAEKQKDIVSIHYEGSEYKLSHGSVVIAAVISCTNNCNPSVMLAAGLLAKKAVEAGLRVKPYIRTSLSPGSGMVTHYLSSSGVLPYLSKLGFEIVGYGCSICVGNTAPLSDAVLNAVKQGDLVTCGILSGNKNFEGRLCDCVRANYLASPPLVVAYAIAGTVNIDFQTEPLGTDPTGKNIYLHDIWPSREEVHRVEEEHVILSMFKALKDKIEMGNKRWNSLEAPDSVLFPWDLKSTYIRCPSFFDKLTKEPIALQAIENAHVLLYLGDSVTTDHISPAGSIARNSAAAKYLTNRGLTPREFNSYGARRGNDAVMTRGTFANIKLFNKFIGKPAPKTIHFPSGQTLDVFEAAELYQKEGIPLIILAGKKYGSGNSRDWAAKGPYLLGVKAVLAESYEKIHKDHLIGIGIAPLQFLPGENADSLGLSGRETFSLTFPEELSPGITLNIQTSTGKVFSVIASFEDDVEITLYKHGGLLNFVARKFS
To be noted: for isoTOP-ABPP ratio (reactivity profile), P48200_C137: 500 μm in-vitro ramos.

The next assay deals with T3, MGMT C145 (P16455) (Homo sapiens, UniProt P16455).
T3 sequence (P16455 1-207): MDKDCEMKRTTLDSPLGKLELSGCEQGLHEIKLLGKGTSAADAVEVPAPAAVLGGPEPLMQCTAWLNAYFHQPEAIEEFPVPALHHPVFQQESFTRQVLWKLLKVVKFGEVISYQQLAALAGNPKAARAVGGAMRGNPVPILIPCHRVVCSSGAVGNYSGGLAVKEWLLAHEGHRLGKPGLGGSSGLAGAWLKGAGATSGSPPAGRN
The note with it: for isoTOP-ABPP ratio (reactivity profile), P16455_C145: 500 μm in-vitro ramos.

`O=C(CCl)NC1C(O)OC(CO)C(O)C1O` (mixture of isomers) [compound 44]: on DDX59 C414 (Q5T1V6) (500 μm, in-vitro_ramos_231), the “isoTOP-ABPP reactivity profile ratio, Q5T1V6_C414” value worked out at 0.8.

Take `COc1ccc2c(c1)CCCN2C(=O)CCl` [compound 2]: the “R value (DMSO/fragment)” value at DDX59 C414 (Q5T1V6) (500 μM, in vitro, MDA-MB-231) was 20.0; at DDX59 C414 (Q5T1V6) (500 μM, invitro, ramos), 20.0; on EZH2 C503 (Q15910) (500 μM, invitro, ramos), 2.8; on IREB2 C137 (P48200) (500 μM, invitro, ramos), 10.5; at MGMT C145 (P16455) (500 μM, invitro, ramos), 20.0.

Turning to `O=C(CCl)Nc1cc(C(F)(F)F)cc(C(F)(F)F)c1` [compound 3], the “R value (DMSO/fragment)” value at DDX59 C414 (Q5T1V6) (500 μM, invitro, ramos) worked out at 6.0; at EZH2 C503 (Q15910) (500 μM, invitro, ramos) it was 2.0; at MGMT C145 (P16455) (500 μM, invitro, ramos), 20.0.

Turning to `COc1ccc(C2CC(c3cccs3)=NN2C(=O)CCl)cc1` (centres unmarked) [compound 4], the “R value (DMSO/fragment)” value is listed as 1.5 at EZH2 C503 (Q15910) (250 μM, in vitro, Ramos) and 20.0 at MGMT C145 (P16455) (250 μM, in vitro, Ramos).

Regarding `C=CC(=O)N(c1ccccc1)c1ccc(Br)cc1` [compound 5], at EZH2 C503 (Q15910) (500 μM, invitro, ramos), the “isoTOP-ABPP ratio, Q15910_C503” value was 20.0. In addition, on MGMT C145 (P16455) (500 μM, invitro, ramos), the “isoTOP-ABPP ratio, P16455_C145” value was found to be 2.0.

In the case of `CNS(=O)(=O)C=Cc1ccc2c(ccn2Cc2ccccc2)c1` [compound 6], at EZH2 C503 (Q15910) (500 μM, invitro, 231), the “isoTOP-ABPP ratio, Q15910_C503” value came to 1.8.

Regarding `O=C(CCl)N1CCN(S(=O)(=O)c2ccccc2F)CC1` [compound 10], at IREB2 C137 (P48200) (500 μM, invitro, ramos), the “isoTOP-ABPP ratio, P48200_C137” value came to 2.1.

As to `Cn1cc(S(=O)(=O)N2CCOCC2)cc1C(=O)NC(=O)CCl` [compound 11], the “isoTOP-ABPP ratio, Q15910_C503” value on EZH2 C503 (Q15910) (500 μM, invitro, ramos) is 1.3. Also, the “isoTOP-ABPP ratio, P48200_C137” value on IREB2 C137 (P48200) (500 μM, invitro, ramos) was 3.7. In addition, on MGMT C145 (P16455) (500 μM, invitro, ramos), the “isoTOP-ABPP ratio, P16455_C145” value was found to be 20.0.

With `O=C(CCl)NCCc1c[nH]c2ccccc12` [compound 13], the “isoTOP-ABPP ratio, Q5T1V6_C414” value on DDX59 C414 (Q5T1V6) (500 μM, invitro, ramos) came out at 1.2. Also, the “isoTOP-ABPP ratio, Q15910_C503” value at EZH2 C503 (Q15910) (500 μM, invitro, ramos) is 0.8. In addition, the “isoTOP-ABPP ratio, P16455_C145” value on MGMT C145 (P16455) (500 μM, invitro, ramos) was 20.0.

On to `C=CC(=O)N(Cc1cccnc1)c1ccc(Oc2ccccc2)c(C(F)(F)F)c1` [compound 15], for which the “isoTOP-ABPP ratio (reactivity profile), Q5T1V6_C414” value on DDX59 C414 (Q5T1V6) (500 μm in-vitro ramos) is on record as 1.0. In addition, the “isoTOP-ABPP ratio, Q15910_C503” value on EZH2 C503 (Q15910) (500 μM, invitro, 231) is recorded as 0.8. Further, the “isoTOP-ABPP ratio (reactivity profile), P48200_C137” value on IREB2 C137 (P48200) is listed as 2.0. Moreover, the “isoTOP-ABPP ratio (reactivity profile), P16455_C145” value on MGMT C145 (P16455) is 1.3.

Take `O=C(CCl)N1CCC(C(O)(c2ccccc2)c2ccccc2)CC1` [compound 20]: the “isoTOP-ABPP ratio (reactivity profile), Q5T1V6_C414” value on DDX59 C414 (Q5T1V6) (500 μm in-vitro ramos) was 3.1. Moreover, the “isoTOP-ABPP ratio (reactivity profile), P48200_C137” value at IREB2 C137 (P48200) amounted to 5.2. In addition, the “isoTOP-ABPP ratio (reactivity profile), P16455_C145” value at MGMT C145 (P16455) was found to be 20.0.

Consider `O=C(CCl)NC12CC3CC(CC(C3)C1)C2` [compound 21], for which the “isoTOP-ABPP ratio (reactivity profile), Q5T1V6_C414” value at DDX59 C414 (Q5T1V6) (500 μm in-vitro ramos_231) came to 1.2.

With `O=C(CCl)N1CCOCC1` [compound 22], at DDX59 C414 (Q5T1V6) (500 μm in-vitro ramos), the “isoTOP-ABPP ratio (reactivity profile), Q5T1V6_C414” value was 1.3.

Turning to `N#C/C(=C\c1cc(C(F)(F)F)cc(C(F)(F)F)c1)C(N)=O` [compound 23], the “isoTOP-ABPP ratio (reactivity profile), Q5T1V6_C414” value at DDX59 C414 (Q5T1V6) (500 μm in-vitro ramos) turned out to be 1.4. In addition, the “isoTOP-ABPP ratio (reactivity profile), Q15910_C503” value on EZH2 C503 (Q15910) (500 μm in-vitro ramos) was determined as 2.0. For the same compound, the “isoTOP-ABPP ratio (reactivity profile), P48200_C137” value on IREB2 C137 (P48200) was 1.6. Further, the “isoTOP-ABPP ratio (reactivity profile), P16455_C145” value at MGMT C145 (P16455) was found to be 1.0.

Turning to `CC(Br)C(=O)Nc1cc(C(F)(F)F)cc(C(F)(F)F)c1` (centres unmarked) [compound 24], the “isoTOP-ABPP ratio (reactivity profile), Q5T1V6_C414” value on DDX59 C414 (Q5T1V6) (500 μm in-vitro ramos) was found to be 1.7. Also, the “isoTOP-ABPP ratio (reactivity profile), Q15910_C503” value at EZH2 C503 (Q15910) (500 μm in-vitro ramos) turned out to be 1.3. Also, at MGMT C145 (P16455), the “isoTOP-ABPP ratio (reactivity profile), P16455_C145” value came to 20.0.

For `CC(Cl)C(=O)Nc1cc(C(F)(F)F)cc(C(F)(F)F)c1` (centres unmarked) [compound 25], the “isoTOP-ABPP ratio (reactivity profile), Q15910_C503” value on EZH2 C503 (Q15910) (500 μm in-vitro ramos_231) is given as 0.8.
